{"source": "patent US20250000873A1", "about": "“INHALED ILOPROST FOR RESCUE TREATMENT AND TREATMENT AS NEEDED IN PULMONARY HYPERTENSION” (JUSTUS-LIEBIG-UNIVERSITAET GIESSEN, priority 2021, published 2025)", "key": {"[1]": {"system": "patients with pulmonary arterial hypertension", "test": "Clinical pilot study of iloprost PRN, hemodynamics by intracardiac catheter and tolerability", "format": "in vivo, human", "method": "A clinical pilot study to evaluate the feasibility of iloprost PRN was conducted with 4 patients. Eligible were male and female patients with pulmonary arterial hypertension in the age from 18 to 70 years having a mean pulmonary arterial blood pressure (PAP) higher than 25 mm Hg, a pulmonary vascular resistance (PVR) higher than 240 dyn*s*cm−5, a central venous pressure (CVP) higher than 3 mm Hg, and a pulmonary capillary wedge pressure (PCWP) lower than 12 mm Hg. Patients were therapy-naïve, or were receiving PH-specific medication (endothelin receptor antagonists, phosphodiesterase type 5 inhibitors, prostacyclin analogues) alone or in combination. Patients were monitored by ECG, pulse oxymetry, and non-invasive blood pressure measurement. An intracardiac catheter was introduced into the distal pulmonary artery to measure PAP, CVP, PCWP, and cardiac output. Also measured were the heart rate, systemic arterial pressure (SAP), systemic vascular resistance (SVR), central arterial and venous blood gases. After the initial determination of all parameters the reactivity of the pulmonary vasculature to oxygen (2 to 4 L/min) and nitric oxide (20 ppm) was tested. Subsequently, patients inhaled a single dose of 2.5 μg of nebulized iloprost in two breaths, using a prototype of a soft mist inhaler filled with iloprost in a concentration of 50 μg/ml. Hemodynamic parameters and clinical condition of the patients were assessed before and 1, 5, 15 and 30 minutes after inhalation. In the absence of adverse effects, a second inhalation maneuver with 4 breaths corresponding to a dose 5 μg iloprost was performed, again followed by an observation period of at least 30 minutes."}, "[2]": {"system": "hemodynamic parameters of pulmonary circulation", "settings": "conventional nebulizers, administered over 10 minutes; cited from earlier work"}}, "note": "“Also recorded” adds a separate entry of the source."}
{"smiles": "CC#CCC(C)[C@H](O)/C=C/[C@@H]1[C@H]2C/C(=C/CCCC(=O)O)C[C@H]2C[C@H]1O", "note": "(stereo partly drawn) [iloprost, 5-{(E)-(1S,5S,6R,7R)-7-hydroxy-6[(E)-(3S,4RS)-3-hydroxy-4-methyl-1-octen-6-inyl]-bicyclo[3.3.0]octan-3-ylidene}pentanoic acid]", "values": [{"measurement": "Tolerability of the treatment", "setting": "[1]; inhaled 2.5 μg (2 breaths) then 5 μg (4 breaths), prototype soft mist inhaler, iloprost 50 μg/ml, 4 patients", "result": "all patients tolerated the treatment well"}, {"measurement": "Systemic side effects (SAP and SVR changes)", "setting": "[1]; inhaled 2.5 μg or 5 μg, soft mist inhaler prototype, n=4", "result": "without significant systemic side effects"}, {"measurement": "Onset of therapeutic pulmonary vascular effects (PAP and PVR changes)", "setting": "[1]; rapid inhalation of 2.5 μg or 5 μg (2 or 4 puffs à 1.25 μg), soft mist inhaler prototype, n=4", "result": "already seen within only one minute after rapid iloprost inhalation; also recorded: already registered one minute after finishing the inhalation maneuver"}, {"measurement": "Time of maximum therapeutic effects on hemodynamic parameters of pulmonary circulation after end of inhalation", "setting": "[2]", "result": "approximately 5 minutes"}]}
